Values after ≈ are worked out from the molar mass of the structure shown.

The subject of one assay is EcN. Put plainly: Minimal inhibitory concentration (MIC) of EcN strains. It counts as cell-based, Escherichia coli Nissle 1917. To be noted: Escherichia coli; strain EcN.
In the next assay the test system is KN02. Described as above. The assay is classed as cell-based, Escherichia coli Nissle 1917. The following applies: Escherichia coli, read-out: Minimal inhibitory concentration (MIC).
The test system of another assay is KN01. The description is as above. The assay is classed as cell-based, Escherichia coli Nissle 1917. The following applies: Escherichia coli, read-out: Minimal inhibitory concentration (MIC).
Assay [1] deals with endogenous Enterobacteriaceae. Put plainly: Streptomycin treatment and EcN (KN01) colonization of the murine gut. To be noted: 1 g/L of Sm in drinking water, mice. It counts as in vivo, mouse. On the procedure:
FIGS. 3.A to G. Streptomycin (Sm) treatment improves mouse gut colonization by Escherichia coli Nissle 1917 (EcN). The ability of different Sm concentrations to deplete endogenous Enterobacteriaceae (white area) and to promote EcN colonization (gray area) was evaluated by quantifying CFU in feces from mice treated with 0 mg/L (FIG. 3.A), 50 mg/L (FIG. 3.B), 100 mg/L (FIG. 3.C), 250 mg/L (FIG. 3.D), 450 mg/L (FIG. 3.E) and 1000 mg/L (FIG. 3.F) in drinking water starting at day −2. The colonization levels of KN01 in several sections of the intestinal tract of untreated (0) and streptomycin-treated ( ) mice was evaluated (FIG. 3.G). […]
Mouse model. All mice-related protocols were designed in compliance with our institution Animal Care Comity Guidelines and were strictly evaluated to avoid animal suffering. […] Animal weight and health was monitored daily throughout each experiment. […] For Sm treated mice groups, Sm working concentration was first evaluated to maximize Enterobacteriaceae clearance and EcN colonization (Kotula et al., 2014). […] Bacterial load was monitored in feces sampling at specified time points. […] Animals were then dissected to reveal the colonization pattern and gut bacterial content was evaluated by CFU. […]
Feces and tissues processing. […] CFUs/mg sample were calculated as a function of the sample measured weight. […]

For `CC1(C)S[C@@H]2[C@H](NC(=O)[C@H](N)c3ccccc3)C(=O)N2[C@H]1C(=O)O` [Ap, ampicillin], the MIC with EcN, in the assay on KN02 and in the assay with KN01 was < 25 µg/mL throughout.
For the compound `O=C(N[C@H](CO)[C@H](O)c1ccc([N+](=O)[O-])cc1)C(Cl)Cl` [Cm, chloramphenicol], the results for the MIC in the assay with EcN, with KN02 and with KN01 were < 8 µg/mL, 264 µg/mL (≈ 817 µM) and < 8 µg/mL, respectively.
`[H]/N=C(/N)N[C@H]1[C@H](O)[C@@H](O)[C@H](O[C@@H]2O[C@@H](C)[C@](O)(C=O)[C@H]2O[C@@H]2O[C@@H](CO)[C@H](O)[C@@H](O)[C@@H]2NC)[C@@H](N/C(N)=N\[H])[C@@H]1O` [Sm, streptomycin]: the MIC against EcN was 25 µg/mL (≈ 43 µM); with KN02 it was > 1600 µg/mL; in the assay with KN01, 800 µg/mL (≈ 1380 µM). Besides, the “Enterobacteriaceae clearance and KN01 colonization” value in assay [1] is listed as “cleared Enterobactericeae while allowing stable colonization of the KN01 strain”.
With `CN[C@@H]1[C@H](O)[C@H](NC)[C@H]2O[C@@]3(O)C(=O)C[C@@H](C)O[C@H]3O[C@@H]2[C@H]1O` [Sp, spectinomycin], the MIC came to 50 µg/mL (≈ 150 µM) with EcN and 3000 µg/mL (≈ 9030 µM) in the assay with KN01.

Source of the values: patent publication US20230022575A1, “BACTERIAL CONJUGATIVE SYSTEM AND THERAPEUTIC USES THEREOF” (SOCIÉTÉ DE COMMERCIALISATION DES PRODUITS DE LA RECHERCHE …, priority 2018, published 2023).
